According to paper PMC4635503, “High-affinity nitrate/nitrite transporters NrtA and NrtB of Aspergillus nidulans exhibit high specificity and different inhibitor sensitivity” (Microbiology, 2015):
Values after ≈ are worked out from the molar mass of the structure shown. “Also recorded” adds a separate entry of the source. Read-outs that look alike come from different tables or passages of the source.

Tests used:
NrtA, NrtB (WT strain) [1] = experiment: Net nitrate uptake assay and kinetics, WT strain; assay type: cell-based, Aspergillus nidulans; settings: WT (NrtA, NrtB), inhibitor concentration reducing net nitrate uptake rate by 50 % of control, mean ± SE
Protocol: (§1) These were performed on cultures grown in liquid AMM with 5 mM urea as nitrogen source for a total of 6.5 h at 37 °C ([Brownlee & Arst, 1983]). Urea was used as it (i) is a neutral nitrogen source, neither inducing nor repressing nitrate transport, (ii) has been used routinely in the past and (iii) permitted direct comparison with previously published results. […] Transporter activity was induced by the addition of 10 mM sodium nitrate 100 min prior to assay as described previously ([Brownlee & Arst, 1983]). Assays were carried out in triplicate, generally at pH 6.5, on three independently grown cultures for each strain and expressed as nmol nitrate removed from the medium min^ − 1 (mg dried mycelium)^ − 1, as discussed before ([Brownlee & Arst, 1983]; [Kinghorn et al., 2005]; [Unkles et al., 2012]). Both carbonic acid and bicarbonate chemical species can occur at pH 6.5. Thus potential inhibition of nitrate transport by carbonic acid/bicarbonate was tested at pH 6.5 and bicarbonate at pH 8.3.
(§2) To effectively assess net uptake, it is necessary that any export, i.e. simultaneous transport in the reverse direction, is minimal.
(§3) Values of K m and V max were calculated by linear regression of Lineweaver–Burk analyses (1/v against 1/s, where v is net uptake and s is substrate concentration). The kinetic values of nitrate transport by the WT and mutants were compared with those from a previous report ([Unkles et al., 2001]). […] Therefore the kinetic values in the absence of inhibitors from the present study were used as control values. Each K i value was determined by regression of the rates of net nitrate uptake transport versus the range of concentrations of a particular inhibitor: linear or nonlinear regression was used, depending on which type provided the highest r ^2 value. Calculated from each regression was the concentration of the inhibitor that reduced net nitrate uptake rate by 50 % of the control (without inhibitor) rate, which was assessed as the K i value. Lineweaver–Burk analyses were carried out to determine the nature of the inhibition of nitrate transport for each inhibitor.

NrtA, NrtB (WT strain) [2] = tested on: NrtA, NrtB (WT strain); design: method as in Brownlee & Arst (1983); settings: 1 mM chlorate, cells grown for 6 or 17 h, ref Brownlee & Arst (1983); cited from earlier work
NrtB [3] = assay type: cell-based, Aspergillus nidulans; settings: for nature of inhibition of nitrate transport (Lineweaver–Burk): NrtB (expressed in nrtA1); for Ki: nrtA1 (NrtB), inhibitor concentration reducing net nitrate uptake rate by 50 % of control, mean ± SE
Protocol: as §1, §2, §3

NrtA [4] = target: T1, NrtA (Emericella nidulans, UniProt P22152); experiment: cell-based; design: mutant nrtB110 (expressing a functional NrtA); endogenous in cells; host or cells: Aspergillus nidulans mycelium, knockout strain nrtB110, nitrate-induced; species or system Aspergillus nidulans; settings: for Ki: K i, nrtB110 (NrtA), inhibitor concentration reducing net nitrate uptake rate by 50 % of control, mean ± SE; for nature of inhibition of nitrate transport (Lineweaver–Burk): NrtA (expressed in nrtB110)
T1 sequence (P22152 whole entry): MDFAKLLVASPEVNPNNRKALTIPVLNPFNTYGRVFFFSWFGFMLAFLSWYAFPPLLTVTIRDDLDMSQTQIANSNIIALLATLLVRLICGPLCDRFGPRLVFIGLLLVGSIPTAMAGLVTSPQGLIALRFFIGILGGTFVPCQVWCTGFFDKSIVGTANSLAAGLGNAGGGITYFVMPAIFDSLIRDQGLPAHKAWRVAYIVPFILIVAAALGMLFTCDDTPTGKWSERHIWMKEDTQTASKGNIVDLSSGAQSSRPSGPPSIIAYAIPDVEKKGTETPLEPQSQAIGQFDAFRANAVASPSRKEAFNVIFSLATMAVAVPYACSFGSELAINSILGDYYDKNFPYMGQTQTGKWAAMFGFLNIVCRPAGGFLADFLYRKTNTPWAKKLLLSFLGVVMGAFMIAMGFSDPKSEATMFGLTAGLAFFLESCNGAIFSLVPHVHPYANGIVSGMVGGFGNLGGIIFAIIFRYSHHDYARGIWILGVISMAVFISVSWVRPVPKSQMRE
Protocol: as §1, §2, §3

[5] = tested on: A. nidulans WT strain (NrtA, NrtB); experiment: MIC growth test on solid AMM, WT strain; assay type: cell-based, Aspergillus nidulans; settings: Aspergillus nidulans
Protocol: (§4) Fungal growth tests were carried out in standard Petri dishes containing defined Aspergillus minimal medium (AMM) agar ([Cove, 1976]), with sodium nitrate or proline as the sole nitrogen source, at 1 or 10 mM concentration. Strains were tested for inhibition by bicarbonate, formate, oxalate, chlorite, sulphite (all purchased as the sodium salt), chlorate (potassium salt), malonate (acid form) or caesium (chloride salt). Stock aqueous solutions of inhibitors were adjusted to pH 6.5 and prepared immediately before use. It should be noted that at pH 6.5, bicarbonate is in approximately 50 % equilibrium with carbonic acid. […] Cultures were incubated routinely at 37 °C for 48 h, and the growth response was scored.
(§5) Each treatment was carried out in five replicates. […] As caesium was utilized as a chloride salt, a control for potential inhibition by chloride was assessed, by growth on 100 mM sodium chloride (Fig. 4).

NrtA [6] = target: T1, NrtA; design: mutant nrtB110 (expressing a functional NrtA); endogenous in cells; host or cells: Aspergillus nidulans mycelium, knockout strain nrtB110, nitrate-induced; method as in Zhou et al. (2000); settings: NrtA expressed in Xenopus oocytes; ref Zhou et al. (2000); cited from earlier work
NrtB [7] = tested on: NrtB; design: method as in Brownlee & Arst (1983); settings: crnA1 (nrtA1) mutant, 1 mM chlorate, cells grown for 6 or 17 h; ref Brownlee & Arst (1983); cited from earlier work
[8] = tested on: A. nidulans mutant nrtB110 (functional NrtA); experiment: microbe, parasite or virus in culture; assay type: cell-based, Aspergillus nidulans; settings: nrtB110 (NrtA)
Protocol: as §4, §5

[9] = tested on: nitrate transport by NrtA and NrtB; experiment: Net nitrate transport inhibition assays, strain not specified; assay type: cell-based, Aspergillus nidulans; settings: net nitrate transport; data not shown
Protocol: as §1, §2

NitA = settings: data not shown
[10] = tested on: A. nidulans double mutant tbl110 (nrtA747 nrtB110, neither transporter); experiment: microbe, parasite or virus in culture; assay type: cell-based, Aspergillus nidulans; settings: T110 (neither transporter)
Protocol: as §4, §5

[11] = tested on: A. nidulans mutant nrtA1 (functional NrtB); experiment: microbe, parasite or virus in culture; assay type: cell-based, Aspergillus nidulans; settings: Aspergillus nidulans
Protocol: as §4, §5

[12] = 1 mM nitrate as sole nitrogen source, solid AMM, 37 °C
[13] = 1 mM proline as sole nitrogen source
[14] = 10 mM proline as sole nitrogen source
[15] = Aspergillus nidulans, 1 mM nitrate as sole nitrogen source
[16] = Aspergillus nidulans, 10 mM proline as sole nitrogen source
[17] = 10 mM nitrate as sole nitrogen source
[18] = Aspergillus nidulans, 1 mM proline as sole nitrogen source

Structure (SMILES)	Ki (NrtA, NrtB (WT strain) [1]) [mM]	nature of inhibition of nitrate transport (Lineweaver–Burk) (NrtB [3])	Ki (NrtB [3]) [mM]	Ki (NrtA [4]) [mM]	nature of inhibition of nitrate transport (Lineweaver–Burk) (NrtA [4])	MIC [5, 12] [µM]	MIC [5, 13] [µM]	MIC [5, 14] [µM]	substrate / transport by NrtA in oocytes (NrtA [6])	MIC [8, 15] [µM]	MIC [8, 16] [µM]	other results
[O-][Cl+2]([O-])O [Chlorate, chlorate]	29.9 ± 3.7	non-competitive inhibition	44.3 ± 2.3	29.3 ± 2.8	competition with nitrate	100000 (≈ 8450 µg/mL)	50000 (≈ 4220 µg/mL)	25000 (≈ 2110 µg/mL)	did not, however, observe transport	50000 (≈ 4220 µg/mL)	50000 (≈ 4220 µg/mL)	Ki (NrtA, NrtB (WT strain) [1]; listed as chlorate): ~30 mM; reduction of nitrate transport (NrtA, NrtB (WT strain) [2]): 80%; nature of inhibition of nitrate transport (Lineweaver–Burk) (NrtB [3]; listed as chlorate): non-competitively; Ki (NrtB [3]; listed as chlorate): ~44 mM; net nitrate transport activity retained (NrtB [3]; nrtA1 (functional NrtB), 10 mM chlorate, data not shown): 93%; nature of inhibition of nitrate transport (Lineweaver–Burk) (NrtA [4]; listed as chlorate): competitive inhibitor; activity at 10000 µM (NrtA [4]; read-out: net nitrate transport activity retained): 65%; reduction of nitrate transport (NrtB [7]): 80%
[O-][Cl+]O [Chlorite, chlorite]	0.35 ± 0.02	non-competitive inhibition	0.34 ± 0.02	0.49 ± 0.01	competitive; also recorded: competition	200 (≈ 13.7 µg/mL)	500 (≈ 34.2 µg/mL)	1000 (≈ 68.5 µg/mL)	substrate	100 (≈ 6.85 µg/mL)	3000 (≈ 205 µg/mL)	concentration sufficient to prevent transport of nitrate completely [9]: 1 mM; MIC [5, 17]: 500 µM (≈ 34.2 µg/mL); substrate for nitrite transporter NitA (NitA): significant substrate; MIC [10, 18]: > 500 µM; MIC [10, 16]: 5000 µM (≈ 342 µg/mL); MIC [10, 13]: >500 µM; MIC [8, 18]: 500 µM (≈ 34.2 µg/mL); MIC ([8]; Aspergillus nidulans, 10 mM nitrate as sole nitrogen source): 500 µM (≈ 34.2 µg/mL); MIC [8, 14]: 3000 µM (≈ 205 µg/mL); MIC ([11]; 1 mM nitrate as sole nitrogen source): 200 µM (≈ 13.7 µg/mL); MIC [11, 13]: 500 µM (≈ 34.2 µg/mL); MIC [11, 17]: 500 µM (≈ 34.2 µg/mL); MIC [11, 14]: 2000 µM (≈ 137 µg/mL)
